Measurements as given in ChEMBL document CHEMBL1201862, “PubChem BioAssay data set” (2004).
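Exposure lasted 48 hours, with cells grown in 96-well plates and compounds tested at five concentrations. The concentration for 50% growth inhibition is given as GI50.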 The source made the active and inactive calls. Cut-off read from the data, not from the text of the source: active = GI50 up to about 1.1 µM and inactive = higher.

Tests used:
Assay in all cases: growth of human tumour cells (NCI), 48 h
EKVX = test system: EKVX
SW-620 = test system: SW-620
Malme-3M = test system: Malme-3M
ACHN = test system: ACHN
COLO 205 = test system: COLO 205
OVCAR-5 = test system: OVCAR-5
MCF7 = test system: MCF7
NCI-H522 = test system: NCI-H522
SK-MEL-5 = test system: SK-MEL-5
HOP-62 = test system: HOP-62
786-0 = test system: 786-0
SK-MEL-2 = test system: SK-MEL-2
LOX IMVI = test system: LOX IMVI
MOLT-4 = test system: MOLT-4
SF-295 = test system: SF-295
SK-MEL-28 = test system: SK-MEL-28
NCI-H460 = test system: NCI-H460
HCT-116 = test system: HCT-116
UACC-257 = test system: UACC-257
RPMI-8226 = test system: RPMI-8226

Measured: GI50

C=CCOc1ccc(C2c3c(n[nH]c3O)CC(C)(O)C2C(=O)OC)cc1OC (stereo not given)
inactive: EKVX > 100 µM | SW-620 > 100 µM | Malme-3M > 100 µM | ACHN > 100 µM | COLO 205 > 100 µM | OVCAR-5 > 100 µM | MCF7 > 100 µM | NCI-H522 > 100 µM | SK-MEL-5 > 100 µM | HOP-62 > 100 µM | 786-0 > 100 µM | SK-MEL-2 > 100 µM | LOX IMVI > 100 µM | MOLT-4 > 100 µM | SF-295 > 100 µM | SK-MEL-28 > 100 µM | NCI-H460 > 100 µM | HCT-116 > 100 µM | UACC-257 > 100 µM | RPMI-8226 > 100 µM

O=c1c2cc([N+](=O)[O-])ccc2nc2n1CCCCC2
inactive: EKVX 66.4 µM | SW-620 > 100 µM | Malme-3M > 100 µM | ACHN > 100 µM | COLO 205 > 100 µM | OVCAR-5 > 100 µM | MCF7 > 100 µM | NCI-H522 > 100 µM | SK-MEL-5 > 100 µM | HOP-62 > 100 µM | 786-0 > 100 µM | SK-MEL-2 > 100 µM | LOX IMVI > 100 µM | MOLT-4 > 100 µM | SF-295 > 100 µM | SK-MEL-28 > 100 µM | NCI-H460 > 100 µM | HCT-116 > 100 µM | UACC-257 > 100 µM | RPMI-8226 > 100 µM
